Data: patent publication US20100210558A1, “MINIGASTRIN AS A THERAPEUTIC AGENT” (priority 2007, published 2010)
Where no end group is shown, it is not given here.

Key:
[1] = tested on: Human Peripheral Blood Mononuclear Cells (PBMC); assay: B cell proliferation assay (SAC plus Interleukin-2, 3H-thymidine); type: cell-based; conditions: peptide 10 micrograms per ml, 3 days
Pseudomonas aeruginosa = Pseudomonas aeruginosa assay; type: cell-based; conditions: peptide 10 micrograms per ml, visual reading of growth
Streptococcus pneumoniae = Streptococcus pneumoniae assay; type: cell-based; conditions: peptide 10 micrograms per ml, visual reading of growth
HCMV strain AD169 = assay: HCMV plaque reduction assay; type: cell-based; conditions: HCMV AD169 in MRC-5 cells; peptide 10 micrograms per ml; 7-10 days
Description: (§1) Cells were split twice a week 1:2.
Ganciclovir was used as positive control.

[2] = tested on: Human Peripheral Blood Mononuclear Cells (PBMC); assay: T cell proliferation assay (PHA, 3H-thymidine); type: cell-based; conditions: peptide 10 micrograms per ml, 3 days
[3] = Cytotoxicity in HCMV assay (CellTiter 96 cell viability); type: cell-based; conditions: human, MRC-5 cells (embryonal lung fibroblasts), 6 days incubation
Description: as §1

[4] = Cytotoxicity in HIV-1 assay (MTS cell viability); conditions: human
[5] = tested on: spleen cells (IL-2, IL-4, IL-5, IFN-γ, TNF-α protein levels); assay: Th1/Th2 cytokine profiling assay; type: cell-based, Balb/c mice; conditions: Ovalbumin-restimulated Balb/c spleen cells; peptide 10 micrograms per ml; 72 hours
HUVEC = assay: Endothelial tube formation assay; type: cell-based, human; conditions: peptide 10 micrograms per ml, 20 hours
Description: Positive control was vehicle only.

[6] = tested on: Primary Human endothelial cells (HUVEC); assay: Endothelial cell migration assay; type: cell-based; conditions: peptide 10 micrograms per ml, 22 hours
A549 cells = assay: Propidium iodide cell cycle assay; type: cell-based, human; conditions: peptide 10 micrograms per ml, 24 hours, FACS
in vitro = conditions: human
MRSA = assay: Methicillin Resistant Staphylococcus Aureus (MRSA) assay; type: cell-based; conditions: peptide 10 micrograms per ml, visual reading of growth
[7] = tested on: hepatitis B virus (HBV) ayw strain; assay: HBV replication assay (secreted HBV DNA, TaqMan PCR); conditions: HepG2-2.2.15 cells; peptide 10 micrograms per ml; six days; HBV DNA in supernatant
TNF alpha production = TNF alpha production assay (LPS-stimulated macrophages, ELISA); type: cell-based; conditions: human macrophages, peptide 10 micrograms per ml, lipopolysaccharide 200 ng/ml, overnight
RAW 264.7 cells = assay: Phagocytosis assay (Fluorescein-labeled Escherichia coli); type: cell-based, mouse; conditions: peptide 10 micrograms per ml, Fluorescein-labeled E. coli, flow cytometry

Question: For LEEEEEAYGWMDF-NH2 [Minigastrin I], which “% of SAC/IL2 induced control” value [1] is on record?
Answer: The value was 78.4%.

Question: What about the “% inhibition” value (Pseudomonas aeruginosa) of the same substance?
Answer: Its value is 0.0%.

Question: And the “% inhibition” value (Streptococcus pneumoniae)?
Answer: The value was 0.0%.

Question: What about the “% plaque reduction” value (HCMV strain AD169) of the same substance?
Answer: The value was 1.4%.

Question: And the “% of PHA induced control” value [2]?
Answer: The value was 101.1%.

Question: And the viability at 144 h [3]?
Answer: Its viability at 144 h is 100%.

Question: And the viability at 10 micrograms per ml [4]?
Answer: Its viability at 10 micrograms per ml is 100%.

Question: And the “IFNγ spleen cells; TH1 response (% of control)” value [5]?
Answer: The value was 79.5 % of control.

Question: What about the “IL-2 spleen cells (% of control)” value [5] of the same substance?
Answer: Its value is 149.2 % of control.

Question: And the “IL-4 spleen cells; TH2 response (% of control)” value [5]?
Answer: The value was 106.6 % of control.

Question: And the “IL-5 spleen cells; TH2 response (% of control)” value [5]?
Answer: The value was 66.5 % of control.

Question: What about the “TNF-a spleen cells; TH1 response (% of control)” value [5] of the same substance?
Answer: Its value is 99.0 % of control.

Question: What about the “% inhibition of tube formation” value (HUVEC) of the same substance?
Answer: Its value is 36%.

Question: What about the “% inhibition of migration” value [6] of the same substance?
Answer: Its value is −3%.

Question: What about the “Cell cycle analysis G0/G1” value (A549 cells) of the same substance?
Answer: Its value is 57.1.

Question: And the “Cell cycle analysis G2/M” value (A549 cells)?
Answer: Its value is 10.3.

Question: And the “Cell cycle analysis S” value (A549 cells)?
Answer: Its value is 32.6.

Question: And the viability at 144 h, 10 micrograms per ml (in vitro)?
Answer: The viability at 144 h, 10 micrograms per ml was 9.5%.

Question: What about the “% inhibition” value (MRSA) of the same substance?
Answer: Its value is 0.0%.

Question: What about the “% inhibition of HBV replication in HEP G2 cells” value [7] of the same substance?
Answer: The value was 49.9%.

Question: What about the “% of LPS induction” value (TNF alpha production) of the same substance?
Answer: The value was 79.0%.

Question: What about the “% of control phagocytosis” value (RAW 264.7 cells) of the same substance?
Answer: The value was 145.7%.
